Measured values from patent US20100076015A1, “Aminopyridine Derivatives” (VANTIA LIMITED, priority 2008, published 2010).
pIC50: −log10 of the molar value.

Biological target: T1, Human KLK1 (Homo sapiens, UniProt P06870)
T1 construct: purchased Callbiochem (Calbiochem)
Experiment: Determination of the IC50 for KLK1 (fluorogenic substrate H-DVal-Leu-Arg-AFC)
Format: biochemical
Conditions: 37° C.
Summary of the method: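 Human KLK1 incubated at 37 °C with fluorogenic substrate H-DVal-Leu-Arg-AFC and a range of test compound concentrations. Residual activity was taken as initial reaction rate from absorbance change at 410 nm, and the IC50 derived from it.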

T1 sequence (P06870 25-262): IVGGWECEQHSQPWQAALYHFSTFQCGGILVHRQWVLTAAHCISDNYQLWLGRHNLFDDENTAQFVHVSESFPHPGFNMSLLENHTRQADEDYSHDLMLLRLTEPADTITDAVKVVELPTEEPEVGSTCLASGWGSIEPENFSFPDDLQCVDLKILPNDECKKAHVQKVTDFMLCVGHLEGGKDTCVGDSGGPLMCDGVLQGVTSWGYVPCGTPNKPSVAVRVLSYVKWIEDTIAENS

Going from `CC(C)[C@@H](C(=O)N[C@@H](Cc1ccc(F)cc1)C(=O)NCc1ccc(N)nc1)N(C)C(C)C` [Example 370, (S)—N-[(S)-1-[(6-Amino-pyridin-3-ylmethyl)-carbamoyl]-2-(4-fluoro-phenyl)-ethyl]-2-(isopropyl-methyl-amino)-3-methyl-butyramide] to `CC(C)N(C)[C@@H](C)C(=O)N[C@@H](Cc1ccc(F)cc1)C(=O)NCc1ccc(N)nc1` [Example 181, (S)—N-[(S)-1-[(6-Amino-pyridin-3-ylmethyl)-carbamoyl]-2-(4-fluoro-phenyl)-ethyl]-2-(isopropyl-methyl-amino)-propionamide], the pIC50 rises from 7.95 to 8.96 (1.01 log units). The second is the more potent here.

Compared with `Nc1ccc(CNC(=O)[C@H](Cc2ccc(F)c(F)c2)NC(=O)CN2CCOCC2)cn1` [Example 171, (S)—N-(6-Amino-pyridin-3-ylmethyl)-3-(3,4-difluoro-phenyl)-2-(2-morpholin-4-yl-acetylamino)-propionamide], `C[C@H](C(=O)N[C@@H](Cc1ccc(F)c(F)c1)C(=O)NCc1ccc(N)nc1)N1CCCC1` [Example 356, (R)—N-[(S)-1-[(6-Amino-pyridin-3-ylmethyl)-carbamoyl]-2-(3,4-difluoro-phenyl)-ethyl]-2-pyrrolidin-1-yl-propionamide] is 0.47 log units lower in pIC50: 8.89 for the first, 8.42 for the second.

Going from `CCN(CC)[C@@H](CO)C(=O)N[C@@H](Cc1ccc(F)c(F)c1)C(=O)NCc1ccc(N)nc1` [Example 362, (S)—N-[(S)-1-[(6-Amino-pyridin-3-ylmethyl)-carbamoyl]-2-(3,4-difluoro-phenyl)-ethyl]-2-diethylamino-3-hydroxy-propionamide] to `CCN(CC)[C@@H](CC(=O)OC)C(=O)N[C@@H](Cc1ccc(F)c(F)c1)C(=O)NCc1ccc(N)nc1` [Example 364, (S)—N-[(S)-1-[(6-Amino-pyridin-3-ylmethyl)-carbamoyl]-2-(3,4-difluoro-phenyl)-ethyl]-3-diethylamino-succinamic acid methyl ester], the pIC50 falls from 7.59 to 7.36 (0.23 log units). The first is the more potent here.

Compared with `Nc1ccc(CNC(=O)[C@H](Cc2cccc(C(F)(F)F)c2)NC(=O)c2ccc(C(=O)O)[nH]2)cn1` [Example 275, 5-[(S)-1-[(6-Amino-pyridin-3-ylmethyl)-carbamoyl]-2-(3-trifluoromethyl-phenyl)-ethylcarbamoyl]-1H-pyrrole-2-carboxylic acid], `Cc1cccc(C[C@H](NC(=O)c2cc3ccccc3[nH]2)C(=O)NCc2ccc(N)nc2)c1` [Example 317, 1H-Indole-2-carboxylic acid {(S)-1-[(6-amino-pyridin-3-ylmethyl)-carbamoyl]-2-m-tolyl-ethyl}-amide] is 1.00 log units higher in pIC50: 6.83 for the first, 7.83 for the second.

First: CC(C)[C@@H](N)C(=O)N[C@@H](CC1CCCC2CCCCC21)C(=O)NCc1ccc(N)nc1 (stereo partly drawn) [Example 14, (R)-2-Amino-N-[(S)-1-[(6-amino-pyridin-3-ylmethyl)-carbamoyl]-2-(decahydro-naphthalen-1-yl)-ethyl]-3-methyl-butyramide]
Second: CC(C)N(C)[C@@H](C)C(=O)N[C@@H](CC1CCCC2CCCCC21)C(=O)NCc1ccc(N)nc1 (stereo partly drawn) [Example 395, (S)—N-[(S)-1-[(6-Amino-pyridin-3-ylmethyl)-carbamoyl]-2-(decahydro-naphthalen-1-yl)-ethyl]-2-(isopropyl-methyl-amino)-propionamide]
The pIC50 of the first is 0.75 log units lower: 9.02 for the first, 9.77 for the second. The second is the more potent here.

Compared with `Nc1ccc(CNC(=O)[C@H](Cc2ccc(F)c(F)c2)NC(=O)CN2CCc3ccccc3C2)cn1` [Example 172, (S)—N-(6-Amino-pyridin-3-ylmethyl)-3-(3,4-difluoro-phenyl)-2-(2-3,4-dihydro-1H-isoquinolin-2-yl-acetylamino)-propionamide], `CN(CCc1ccccc1)CC(=O)N[C@@H](Cc1ccc(F)c(F)c1)C(=O)NCc1ccc(N)nc1` [Example 161, (S)—N-(6-Amino-pyridin-3-ylmethyl)-3-(3,4-difluoro-phenyl)-2-[2-(methyl-phenethyl-amino)-acetylamino]-propionamide] is 0.87 log units lower in pIC50: 7.90 for the first, 7.03 for the second. The first is the more potent here.

First: CCCN1CCC[C@@H]1C(=O)N[C@@H](Cc1ccc(F)cc1)C(=O)NCc1ccc(N)nc1 [Example 139, (R)-1-Propyl-pyrrolidine-2-carboxylic acid [(S)-1-[(6-amino-pyridin-3-ylmethyl)-carbamoyl]-2-(4-fluoro-phenyl)-ethyl]-amide]
Second: CCCN1CCC[C@@H]1C(=O)N[C@@H](Cc1ccc(F)c(F)c1)C(=O)NCc1ccc(N)nc1 [Example 132, (R)-1-Propyl-pyrrolidine-2-carboxylic acid [(S)-1-[(6-amino-pyridin-3-ylmethyl)-carbamoyl]-2-(3,4-difluoro-phenyl)-ethyl]-amide]
The pIC50 of the first is 0.24 log units higher: 8.43 for the first, 8.19 for the second. The first is the more potent here.

Compared with `CN(CC(=O)N[C@@H](Cc1ccc(F)c(F)c1)C(=O)NCc1ccc(N)nc1)Cc1cccc(Cl)c1` [Example 164, (S)—N-(6-Amino-pyridin-3-ylmethyl)-2-{2-[(3-chloro-benzyl)-methyl-amino]-acetylamino}-3-(3,4-difluoro-phenyl)-propionamide], `CN[C@H](Cc1ccccc1)C(=O)N[C@@H](Cc1ccc(F)c(F)c1)C(=O)NCc1ccc(N)nc1` [Example 81, (R)—N-[(S)-1-[(6-Amino-pyridin-3-ylmethyl)carbamoyl]-2-(3,4-difluoro-phenyl)-ethyl]-2-methylamino-3-phenyl-propionamide] is 1.84 log units higher in pIC50: 6.46 for the first, 8.30 for the second. The second is the more potent here.

First: Cc1cc[nH]c1C(=O)N[C@@H](Cc1ccc(F)cc1)C(=O)NCc1ccc(N)nc1 [Example 261, 3-Methyl-1H-pyrrole-2-carboxylic acid [(S)-1-[(6-amino-pyridin-3-ylmethyl)-carbamoyl]-2-(4-fluoro-phenyl)-ethyl]-amide]
Second: Cc1cc(C)c(C(=O)N[C@@H](Cc2cc(F)cc(F)c2)C(=O)NCc2ccc(N)nc2)[nH]1 [Example 249, 3,5-Dimethyl-1H-pyrrole-2-carboxylic acid [(S)-1-[(6-amino-pyridin-3-ylmethyl)-carbamoyl]-2-(3,5-difluoro-phenyl)-ethyl]-amide]
The pIC50 of the first is 0.28 log units lower: 7.88 for the first, 8.16 for the second.

Compared with `C[C@@H](C(=O)N[C@@H](Cc1ccc(F)c(F)c1)C(=O)NCc1ccc(N)nc1)N(C)C` [Example 344, (S)—N-[(S)-1-[(6-Amino-pyridin-3-ylmethyl)-carbamoyl]-2-(3,4-difluoro-phenyl)-ethyl]-2-dimethylamino-propionamide], `CCC(C)[C@@H](N)C(=O)N[C@@H](Cc1ccc(F)c(F)c1)C(=O)NCc1ccc(N)nc1` (stereo partly drawn) [Example 32, (R)-2-Amino-3-methyl-pentanoic acid [(S)-1-[(6-amino-pyridin-3-ylmethyl)-carbamoyl]-2-(3,4-difluoro-phenyl)-ethyl]-amide] is 0.88 log units higher in pIC50: 7.67 for the first, 8.55 for the second.

Compared with `CC(C)N1CCC[C@@H]1C(=O)N[C@@H](Cc1ccncc1)C(=O)NCc1ccc(N)nc1` [Example 129, (R)-1-Isopropyl-pyrrolidine-2-carboxylic acid {(S)-1-[(6-amino-pyridin-3-ylmethyl)-carbamoyl]-2-pyridin-4-yl-ethyl}-amide], `CC(C)N(C)CC(=O)N[C@@H](Cc1ccc(Cl)c(Cl)c1)C(=O)NCc1ccc(N)nc1` [Example 150, (S)—N-(6-Amino-pyridin-3-ylmethyl)-3-(3,4-dichloro-phenyl)-2-[2-(isopropyl-methyl-amino)-acetylamino]-propionamide] is 1.25 log units higher in pIC50: 6.67 for the first, 7.92 for the second. The second is the more potent here.

First: CC(C)N(CC(=O)N[C@@H](CC1CCCCC1)C(=O)NCc1ccc(N)nc1)C(C)C [Example 393, (S)—N-(6-Amino-pyridin-3-ylmethyl)-3-cyclohexyl-2-(2-diisopropylamino-acetylamino)-propionamide]
Second: CN(C)CC(=O)N[C@@H](Cc1ccc(Cl)c(Cl)c1)C(=O)NCc1ccc(N)nc1 [Example 153, (S)—N-(6-Amino-pyridin-3-ylmethyl)-3-(3,4-dichloro-phenyl)-2-(2-dimethylamino-acetylamino)-propionamide]
The pIC50 of the first is 0.41 log units higher: 7.57 for the first, 7.16 for the second.

Going from `CCN(CC)[C@@H](C)C(=O)N[C@@H](Cc1cccc(Cl)c1)C(=O)NCc1ccc(N)nc1` [Example 410, (S)—N-[(S)-1-[(6-Amino-pyridin-3-ylmethyl)-carbamoyl]-2-(3-chloro-phenyl)-ethyl]-2-diethylamino-propionamide] to `C[C@H](C(=O)N[C@@H](Cc1ccc(Cl)c(Cl)c1)C(=O)NCc1ccc(N)nc1)N(C)S(C)(=O)=O` [Example 212, (R)—N-[(S)-1-[(6-Amino-pyridin-3-ylmethyl)-carbamoyl]-2-(3,4-dichloro-phenyl)-ethyl]-2-(methanesulfonyl-methyl-amino)-propionamide], the pIC50 falls from 8.59 to 7.53 (1.06 log units). The first is the more potent here.

First: Nc1ccc(CNC(=O)[C@H](Cc2ccc(Cl)c(Cl)c2)NC(=O)[C@H]2Cc3ccccc3CN2)cn1 [Example 64, (R)-1,2,3,4-Tetrahydro-isoquinoline-3-carboxylic acid [(S)-1-[(6-amino-pyridin-3-ylmethyl)-carbamoyl]-2-(3,4-dichloro-phenyl)-ethyl]-amide]
Second: CC(C)N(C)[C@@H](Cc1ccccc1)C(=O)N[C@@H](Cc1ccc(F)cc1)C(=O)NCc1ccc(N)nc1 [Example 373, (S)—N-[(S)-1-[(6-Amino-pyridin-3-ylmethyl)-carbamoyl]-2-(4-fluoro-phenyl)-ethyl]-2-(isopropyl-methyl-amino)-3-phenyl-propionamide]
The pIC50 of the first is 0.92 log units higher: 8.51 for the first, 7.59 for the second.

First: Cc1ccc(-c2ccc(C(=O)N[C@@H](Cc3csc4ccccc34)C(=O)NCc3ccc(N)nc3)[nH]2)cc1 [Example 293, 5-p-Tolyl-1H-pyrrole-2-carboxylic acid {(S)-1-[(6-amino-pyridin-3-ylmethyl)-carbamoyl]-2-benzo[b]thiophen-3-yl-ethyl}-amide]
Second: Cc1cccc(C[C@H](NC(=O)c2cc3ccccc3[nH]2)C(=O)NCc2ccc(N)nc2C)c1 [Example 319, 1H-Indole-2-carboxylic acid {(S)-1-[(6-amino-2-methyl-pyridin-3-ylmethyl)-carbamoyl]-2-m-tolyl-ethyl}-amide]
The pIC50 of the first is 0.48 log units higher: 7.44 for the first, 6.96 for the second.

`CCC(C)[C@@H](NC)C(=O)N[C@@H](Cc1ccc(F)c(F)c1)C(=O)NCc1ccc(N)nc1` (stereo partly drawn) [Example 43, (R)-3-Methyl-2-methylamino-pentanoic acid [(S)-1-[(6-amino-pyridin-3-ylmethyl)-carbamoyl]-2-(3,4-difluoro-phenyl)-ethyl]-amide] gave a pIC50 of 8.54.
